The target of experiment [1] is T1, E255V Bcr-abl (Ba/F3 cells) (Homo sapiens, UniProt P00519, E255V).
T1 construct: expressed in transfected cells; host or cells: Ba/F3 (murine pro-B cells); the other entry of the earlier key: BCR (P11274, Breakpoint cluster region protein)
Nature of the experiment: Proliferation of Ba/F3 cells expressing E255V Bcr-abl. In kind it is cell-based. As for the experimental part: 32D-p210 cells are plated into 96 well TC plates at a density of 15,000 cells per well. 50 μL of two fold serial dilutions of the test compound (Cmax is 40 μM) are added to each well (STI571 is included as a positive control). After incubating the cells for 48 hours at 37° C., 5% CO2, 15 μL of MTT (Promega) is added to each well and the cells are incubated for an additional 5 hours. The optical density at 570 nm is quantified spectrophotometrically and IC50 values, the concentration of compound required for 50% inhibition, determined from a dose response curve.
Compounds of the invention are tested for their antiproliferative effect on Ba/F3 cells expressing either wild type or the mutant forms of BCR-Abl (G250E, E255V, T315I, F317L, M351T) that confers resistance or diminished sensitivity to STI571. The antiproliferative effect of these compounds on the mutant-BCR-Abl expressing cells and on the non transformed cells were tested at 10, 3.3, 1.1 and 0.37 μM as described above (in media lacking IL3). The IC50 values of the compounds lacking toxicity on the untransformed cells were determined from the dose response curves obtained as describe above.

The target of the next experiment is FLT-3 (Homo sapiens, UniProt P36888, cells depend on it, form not given). The experiment in a line: FLT3 (Cellular Assay), Ba/F3-FLT3-ITD proliferation. As to conditions: read-out: IC50 for FLT-3. The format is cell-based.
The next experiment addresses B-RAF (Homo sapiens, UniProt P15056). Nature of the experiment: b-Raf Enzymatic Assay. The format is biochemical. The procedure:
Compounds of the invention are tested for their ability to inhibit the activity of b-Raf. The assay is carried out in 384-well MaxiSorp plates (NUNC) with black walls and clear bottom. The substrate, IκBα is diluted in DPBS (1:750) and 15 μl is added to each well. The plates are incubated at 4° C. overnight and washed 3 times with TBST (25 mM Tris, pH 8.0, 150 mM NaCl and 0.05% Tween-20) using the EMBLA plate washer. Plates are blocked by Superblock (15 μl/well) for 3 hours at room temperature, washed 3 times with TBST and pat-dried. Assay buffer containing 20 μM ATP (10 μl) is added to each well followed by 100 nl or 500 nl of compound. B-Raf is diluted in the assay buffer (1 μl into 25 μl) and 10 μl of diluted b-Raf is added to each well (0.4 μg/well). The plates are incubated at room temperature for 2.5 hours. The kinase reaction is stopped by washing the plates 6 times with TBST. Phosph-IκBα (Ser32/36) antibody is diluted in Superblock (1:10,000) and 15 μl is added to each well. The plates are incubated at 4° C. overnight and washed 6 times with TBST. AP-conjugated goat-anti-mouse IgG is diluted in Superblock (1:1,500) and 15 μl is added to each well. Plates are incubated at room temperature for 1 hour and washed 6 times with TBST. […] Plates are read on Acquest or Analyst GT using a Fluorescence Intensity Program (Excitation 455 nm, Emission 580 nm).

T1 sequence (P00519 28-1130 E255V limits assumed): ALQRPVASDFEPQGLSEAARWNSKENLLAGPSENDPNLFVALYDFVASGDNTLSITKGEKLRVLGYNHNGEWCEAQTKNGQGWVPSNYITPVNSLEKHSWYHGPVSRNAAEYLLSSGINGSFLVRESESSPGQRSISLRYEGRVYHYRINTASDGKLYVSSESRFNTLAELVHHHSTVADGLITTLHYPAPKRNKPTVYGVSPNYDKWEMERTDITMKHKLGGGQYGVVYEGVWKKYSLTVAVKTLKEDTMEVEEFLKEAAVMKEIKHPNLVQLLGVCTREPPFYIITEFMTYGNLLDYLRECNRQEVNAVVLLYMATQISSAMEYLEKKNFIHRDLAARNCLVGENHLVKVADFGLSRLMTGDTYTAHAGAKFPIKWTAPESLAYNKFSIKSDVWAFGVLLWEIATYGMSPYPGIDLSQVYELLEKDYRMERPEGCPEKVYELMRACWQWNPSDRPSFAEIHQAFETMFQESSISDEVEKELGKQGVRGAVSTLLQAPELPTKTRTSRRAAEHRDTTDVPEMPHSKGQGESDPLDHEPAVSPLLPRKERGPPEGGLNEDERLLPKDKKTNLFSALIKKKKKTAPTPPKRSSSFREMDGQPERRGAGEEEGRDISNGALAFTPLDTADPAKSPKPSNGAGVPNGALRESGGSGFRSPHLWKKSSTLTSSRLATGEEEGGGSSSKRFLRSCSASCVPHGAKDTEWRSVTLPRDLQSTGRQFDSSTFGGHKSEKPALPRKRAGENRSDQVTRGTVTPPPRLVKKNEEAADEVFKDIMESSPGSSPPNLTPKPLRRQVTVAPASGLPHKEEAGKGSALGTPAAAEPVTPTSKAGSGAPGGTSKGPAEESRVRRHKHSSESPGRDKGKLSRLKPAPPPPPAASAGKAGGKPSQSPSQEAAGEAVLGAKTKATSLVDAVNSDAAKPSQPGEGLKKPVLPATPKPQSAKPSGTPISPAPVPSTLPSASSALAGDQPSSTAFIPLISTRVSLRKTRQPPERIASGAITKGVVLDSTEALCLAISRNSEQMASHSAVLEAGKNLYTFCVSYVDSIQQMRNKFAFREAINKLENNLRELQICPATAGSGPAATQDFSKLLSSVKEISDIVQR
B-RAF, sequence (P15056 whole entry): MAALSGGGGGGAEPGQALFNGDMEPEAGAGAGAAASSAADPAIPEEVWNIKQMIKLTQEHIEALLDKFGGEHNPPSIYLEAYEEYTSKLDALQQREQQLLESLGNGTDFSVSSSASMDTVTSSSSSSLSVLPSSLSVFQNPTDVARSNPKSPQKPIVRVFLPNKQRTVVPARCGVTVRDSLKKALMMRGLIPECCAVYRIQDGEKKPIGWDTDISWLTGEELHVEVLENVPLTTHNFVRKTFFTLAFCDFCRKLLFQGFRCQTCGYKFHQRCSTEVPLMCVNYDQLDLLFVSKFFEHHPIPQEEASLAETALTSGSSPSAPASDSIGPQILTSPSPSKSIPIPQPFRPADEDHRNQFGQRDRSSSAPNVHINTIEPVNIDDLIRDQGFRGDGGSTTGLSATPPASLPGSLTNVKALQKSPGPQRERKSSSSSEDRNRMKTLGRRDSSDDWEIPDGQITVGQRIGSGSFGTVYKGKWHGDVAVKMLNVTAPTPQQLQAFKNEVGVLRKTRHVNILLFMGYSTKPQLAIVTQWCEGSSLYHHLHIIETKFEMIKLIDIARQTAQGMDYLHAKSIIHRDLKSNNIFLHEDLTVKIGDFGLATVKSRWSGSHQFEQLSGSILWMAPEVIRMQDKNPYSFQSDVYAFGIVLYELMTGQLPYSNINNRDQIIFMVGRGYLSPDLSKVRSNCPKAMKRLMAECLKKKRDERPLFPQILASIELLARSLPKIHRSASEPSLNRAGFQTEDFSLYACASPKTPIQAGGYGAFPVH

By IC50 is commonly meant the concentration needed to halve the response being measured. Lower therefore signals greater potency in that assay. Turning to `CCN1CCN(Cc2ccc(NC(=O)c3ccc(C)c(NC(=O)N(C)c4ncnc5[nH]ccc45)c3)cc2C(F)(F)F)CC1` [Example 4, N-[4-(4-Ethyl-piperazin-1-ylmethyl)-3-trifluoromethyl-phenyl]-4-methyl-3-[3-methyl-3-(7H-pyrrolo[2,3-d]pyrimidin-4-yl)-ureido]-benzamide], the concentration for half-maximal inhibition (IC50) is below 5 nM in experiment [1] and 100 nM against B-RAF. Also, the GI50 on FLT-3 stood at 15 nM.

For the origin of these results see patent US8183248B2, “Substituted pyrrolo[2,3-d]pyrimidines and compositions as protein kinase inhibitors” (IRM LLC, priority 2005, dated 2012).
